Reference: patent US12385042B2, “Cell-penetrating peptides” (VECTIOPEP OÜ, priority 2019, dated 2025)
Where a SMILES comes first, the peptide text is derived from it. Bridges are numbered along the chain shown (N, C = ends). Roman numbers before positions name the chains, in order. [ ]: non-standard residue; d: D form. The star is where a group is joined. Arachidoyl = CCCCCCCCCCCCCCCCCCCC(=O)*; Stearoyl = CCCCCCCCCCCCCCCCCC(=O)*; Orn = NCCC[C@H](N)C(=O)O

How the values were obtained:
[1] = Negative staining TEM of CPP/siRNA nanoparticles; format: physicochemical; settings: CPP/siRNA complexes at MR30
Method: For the morphological analysis the CPP/siRNA complexes were assembled as described above at MR30. For negative staining, copper grids were covered with Formvar film and carbon layer using Leica EM ACE600 carbon coater (Leica Microsystems, Germany). Then, 10 μL of each sample was absorbed to the grids for 2 min and excess of solution was gently removed. Samples were then exposed to 2% aqueous uranyl acetate solution for 1 min. After removing excess stain with filter paper, the samples were allowed to air-dry. The samples were examined at 120 kV accelerating voltage on FEI Tecnai G2 Spirit electron microscope (FEI, The Netherlands).

[2] = tested on: murine blood coagulation factor VII mRNA; assay: Gene downregulation in vivo (siFVII, mouse liver, qRT-PCR)
Method: For the gene downregulation studies male Balb/c, 2-4 month-old mice were used, with 2-5 mice per group. The CPP/siRNA complexes were formed at MR30 and for each mouse 1.6 mg/kg siRNA dose was used. Particle formulations were administered intravenously via tail vein injection, at 1.6 mg/kg siRNA dose. 48 h post treatment, liver tissues were harvested and snap-frozen for analyses. The tissues were homogenized using Precellys®24-Dual homogenization system (Bertin Technologies, France) with TRIzol reagent (Thermo Fisher Scientific). RNA was extracted according to TRIzol manufacturers protocol with slight modifications. RNA quality and concentration was assessed on 1.8% agarose gel and NanoDrop2000. From RNA complementary DNA was synthesized using SuperScript IV Reverse Transcriptase (Thermo Fisher Scientific) according to manufacturer's protocol. The synthesized cDNA was used for qPCR accompanied with 5× HOT FIREPol EvaGreen qPCR Supermix (Solis Biodyne, Estonia) according to manufacturer's protocol. The obtained data was analyzed using 2-ΔΔCT method and normalized to untreated mouse group (100%). siRNA against blood coagulation factor VII (siFVII) sense 5′-gga (2′F-U) (2′F-C) a (2′F-U) (2′F-C) (2′F-U) (2′F-C) aag (2′F-U) (2′F-C) (2′F-U) (2′F-U) a (2′F-C) T*T-3″ and antisense 5′-g (2′F-U) aaga (2′F-C) (2′F-U) (2′F-U) gaga (2′F-U) ga (2′F-U) (2′F-C) (2′F-C) T*T 3′. Primers for PCR (Mus blood coagulation factor VII) forward […] (SEQ ID NO:11), reverse: […] (SEQ ID NO:12) and (Mus Actin beta) forward: […] (SEQ ID NO: 13) and reverse: […] (SEQ ID NO:14). The siRNA and primers were synthesized by the same manufacturer (Metabion, Germany). Data was collected with ViiA 7 RT_PCR system and analysis based on […] and normalized to results from untreated mice.
As a control hydrodynamic injection of 600 ul of siRNA was used and untreated mice were included. All animal experiments and procedures were approved by the Estonian Laboratory Animal Ethics Committee (approvals no 81, dated Apr. 4, 2016, and 69 and 70, dated Feb. 9, 2011).

organs of BALB/c mice = assay: Gene delivery in vivo (CPP/pDNA, i.v., organ luminescence); set-up: species or system mouse; settings: for reporter gene expression in organs after i.v. CPP/pDNA (in words): CR2 or CR4, 50 μg or 20 μg pDNA, 24 h
Method: For in vivo pDNA delivery studies BALB/c mice were used. Each animal received a single […] intravenous (i.v.) injection of the complexes at CR2 or CR4. Two doses of pDNA […] were used. After 24 hr, the mice were sacrificed using cervical dislocation, and whole organs were harvested and snap-frozen on dry ice. The organs were homogenized, and luminescence was measured.

[3] = tested on: subcutaneous HT-1080 tumor xenograft; assay: Biodistribution of CPP/Cy5-siRNA nanoparticles, HT-1080 tumor; format: in vivo, mouse; settings: peak at 3 h
Method: (§1) Human tumor xenografts (subcutaneous U87MG and HT-1080) were induced in mice (Hsd: Athymic Nude-Foxn1nu female, 2.5 month old, Harlan, UK). The xenografting was performed by implanting the cell suspension (1×10^6 cells in 100 ul volume of ice-cold DMEM without any supplements) subcutaneously to the flank.
(§2) At the appearance of tumor size of approx. 100 mm^3, mice were injected i.v. (via tail vein) with the CPP/siRNA complexes. Each animal received a single 200 ul i.v. injection of 20 ug Cy5-siRNA, formulated with CPPs at MR20 or MR40. As a control, 20 μg of un-complexed Cy5-labeled siRNA was administered. The biodistribution of Cy5-siRNA and CPP/Cy5-siRNA complexes was evaluated at different time points −0.5 h up to 6 h. For that, mice (n=2 in each treatment group) were imaged in vivo using IVIS Lumina II (CaliperLS, USA). Cy-5 fluorescence intensity values were acquired from the tumor region.

U87 cells = assay: MTS toxicity assay; format: cell-based, human
Method: Cell proliferation was determined with the CellTiter 96® Aqueous Non-Radioactive Cell Proliferation Assay (MTS) (Promega Biotech AB, Sweden) according to the manufacturer's instructions. For this 1×10^5 U87 cells were seeded 1 day prior to experiment on transparent 96-well plates. On experiment day, media was replaced with 90 ul of fresh media and to the cells complexes formed at MR30 (both with 25 nM and 100 nM final siRNA concentrations) or free peptide at the range of 0.5-4 uM final concentrations were added. Cells were treated with complexes for 20 h. MTS was added according to the manufacturer's protocol. The absorbance of formazan product was measured at 490 nm with Tecan Sunrise microplate absorbance reader (Tecan Group Ltd, Switzerland) and percentage of viable cells was calculated using GraphPad Prism software 5.0 (Graphpad Software, CA, USA).

CHO cells = assay: pDNA (p-CMV-Luc2) transfection with CPP/pDNA complexes; format: cell-based; settings: serum containing medium, CR1 to CR4, 24 h
Method: For the pDNA transfection experiment, CPP/pDNA nanoparticles were prepared by mixing […] of plasmid (p-CMV-Luc2) with the peptide in MQ water. Charge ratios from 1 to 4 (CR, equivalent to the nitrogen-to-phosphate ratio) were used. 50,000 CHO cells were seeded 24 hr before the experiment into 24-well plates, treated with complexes for 4 h in serum-containing medium, incubated for additional 20 hr, lysed and luminescence was measured.

[4] = tested on: subcutaneous U87MG tumor xenograft; assay: Biodistribution of CPP/Cy5-siRNA nanoparticles, U87 tumor; format: in vivo, mouse; settings: peak at 3 h
Method: as §1, §2

Proteinase K = target: T1, Proteinase K (Parengyodontium album, UniProt P06873); assay: Stability of CPP/siRNA complexes to degradation by Proteinase K; format: physicochemical; settings: Proteinase K >14.4 U per well
T1 construct: purchased Thermo Scientific, USA
Method: To assess protection of siRNA from enzymatic degradation, after addition of PG dilution and initial measurement to set a starting point, Proteinase K (Thermo Scientific, USA) was added (>14 U/ml, 20 ul of mixture per well containing dilution of 120 ul of enzyme in 1 ml), co-incubated with complexes and fluorescence was measured over a 10 h period.

T1 sequence (P06873 106-384): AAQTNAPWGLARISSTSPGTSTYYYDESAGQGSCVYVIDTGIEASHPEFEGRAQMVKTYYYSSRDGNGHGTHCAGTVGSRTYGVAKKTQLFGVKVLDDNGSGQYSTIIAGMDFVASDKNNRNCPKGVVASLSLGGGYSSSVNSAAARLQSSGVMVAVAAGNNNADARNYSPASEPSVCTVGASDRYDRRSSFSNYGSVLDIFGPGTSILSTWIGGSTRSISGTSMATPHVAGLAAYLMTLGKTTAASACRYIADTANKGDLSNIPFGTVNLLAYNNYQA

SMILES	length or size of elongated particles, conglomerates or aggregates (TEM) [1]	nanoparticle diameter / size (TEM) [1]	RNA levels preserved compared to untreated mice ([2]; 1.6 mg/kg siFVII, 48 h, liver)	downregulation compared to siRNA treated group ([2]; 1.6 mg/kg siRNA) [%]	downregulation compared to free siRNA and In vivo JetPEI at N/P6 ([2]; same 1.6 mg/kg dose)	downregulation of the target (FVII) in mouse liver ([2]; single i.v. injection, 1.6 mg/kg siRNA, MR30, 48 h, vs untreated mice) [%]	reporter gene expression in organs after i.v. CPP/pDNA (in words) (organs of BALB/c mice)	peak accumulation in HT-1080 tumor relative to naked Cy5-siRNA [3] [fold]	concentration at which free peptide is toxic to cells (MTS) (U87 cells) [µM]	transfection level in liver at CR2 compared to CR4 (organs of BALB/c mice; liver) [fold]	transfection level in lungs at CR2 compared to CR4 (organs of BALB/c mice; lungs) [fold]	pDNA delivery / gene expression in vitro (in words) (CHO cells)	peak accumulation in U87 tumor relative to naked Cy5-siRNA [4] [fold]	stability of complexes to proteinase K (in words) (Proteinase K)
CCCCCCCCCCCCCCCCCCCC(=O)N[C@@H](Cc1c[nH]cn1)C(=O)N[C@@H](Cc1c[nH]cn1)C(=O)N[C@@H](Cc1c[nH]cn1)C(=O)N[C@@H](Cc1c[nH]cn1)C(=O)N[C@@H](Cc1ccc(O)cc1)C(=O)N[C@@H](Cc1c[nH]cn1)C(=O)N[C@@H](Cc1c[nH]cn1)C(=O)NCC(=O)NCCC[C@H](N)C(=O)N[C@H](C(=O)N[C@@H](CC(C)C)C(=O)N[C@@H](CC(C)C)C(=O)N[C@@H](CCCCN)C(=O)N[C@@H](C)C(=O)N[C@@H](CC(C)C)C(=O)N[C@@H](CCCCN)C(=O)N[C@@H](C)C(=O)N[C@@H](CC(C)C)C(=O)N[C@@H](C)C(=O)N[C@@H](CCCCN)C(=O)N[C@@H](C)C(=O)N[C@H](C(=O)N[C@@H](CC(C)C)C(N)=O)[C@@H](C)CC)[C@@H](C)CC [NF70] (I: H-[Orn]ILLKALKALAKAIL-NH2 / II: Arachidoyl-HHHHYHHG; amide I:1-II:C)	40-80 nm	30-40 nm	approximately 40%	30	higher downregulation effect	~60	very low transfection levels in vivo							
CCCCCCCCCCCCCCCCCC(=O)N[C@@H](Cc1c[nH]cn1)C(=O)N[C@@H](Cc1c[nH]cn1)C(=O)N[C@@H](Cc1ccc(O)cc1)C(=O)N[C@@H](Cc1c[nH]cn1)C(=O)N[C@@H](Cc1c[nH]cn1)C(=O)NCC(=O)NCCC[C@H](N)C(=O)N[C@H](C(=O)N[C@@H](CC(C)C)C(=O)N[C@@H](CC(C)C)C(=O)N[C@@H](CCCCN)C(=O)N[C@@H](C)C(=O)N[C@@H](CC(C)C)C(=O)N[C@@H](CCCCN)C(=O)N[C@@H](C)C(=O)N[C@@H](CC(C)C)C(=O)N[C@@H](C)C(=O)N[C@@H](CCCCN)C(=O)N[C@@H](C)C(=O)N[C@H](C(=O)N[C@@H](CC(C)C)C(N)=O)[C@@H](C)CC)[C@@H](C)CC [NF71] (I: H-[Orn]ILLKALKALAKAIL-NH2 / II: Stearoyl-HHYHHG; amide I:1-II:C)							high reporter gene expression in liver and lungs	37	≥ 5	7	3	promising vectors for pDNA transfection	27	only slightly more resistant than NF55/siRNA complexes
